Laboratory results taken from article PMC12040169 (PLOS Biology, 2025).

Experiment: in vitro
Conditions: human, hela cells, % viability

Row | SMILES | viability at 28.5 h, 10 µM [%]
1 | CC1=C(C(=O)OCC(=O)c2ccc(C)cc2)C2C=C(Br)C=CC2N=C1c1ccc(C)cc1 (stereo not shown) [CBK264079] | 94
2 | O=C(COC(=O)C1CCN(S(=O)(=O)c2cccc3cccnc23)CC1)c1cccc([N+](=O)[O-])c1 [CBK264435] | 97
3 | CC(=O)c1cc2c(cc1NC(=O)CSc1ccccn1)OCO2 [CBK266225] | 94.2
4 | Cc1cc(C)nc(N2CCC(CC(=O)NCCCc3ccc(F)cc3)CC2)n1 [CBK285995] | 83.1
5 | COc1ccc(-c2nc(CCN)n3ccccc23)cc1 [CBK035583] | 94.3
6 | COC(=O)c1ccccc1Oc1nc(OC)cc(OC)n1 [CBK092217] | 110
7 | COc1ccccc1-c1nnc(SCC(=O)O)n1-c1ccccc1 [CBK116149] | 89.5
8 | COc1ccc(S(=O)(=O)N2CCN(C(=S)Nc3ccc(S(N)(=O)=O)cc3)CC2)cc1 [CBK266898] | 92.6
9 | CC(Oc1cccc(F)c1)C(=O)N(C)Cc1cccnc1 (stereo not shown) [CBK304841] | 95.5
10 | Cn1c(=O)c2c(nc(N3CCOCC3)n2CC/N=C2/CCCCCN2)n(C)c1=O [CBK267708C] | 85.7
11 | Cc1cc(O)ccc1Nc1cc(-c2cc3ccccc3s2)ncn1 [CBK091057] | 87
12 | CC(=O)c1ccc(-c2cc(C(=O)NCc3cccc(C(F)(F)F)c3)cnc2-c2ccccc2)s1 [CBK036641] | 90.1
13 | O=C(N[C@H]1CCN2C(=O)c3cc(-c4cccs4)ccc3NC(=O)[C@H]12)c1cccs1 [CBK289336] | 91.8
14 | Cc1cc(C)nc(Nc2ccc(C3CCCN(S(=O)(=O)c4ccc(F)cc4)C3)nc2)n1 (stereo not shown) [CBK285987] | 86
15 | CN(C)Cc1cc(CN(C)C)c(O)c(CCc2ccccc2)n1 [CBK278316C] | 90.9
16 | CC(C)N(C)CCOc1ncccc1OCCO [CBK039171] | 104
17 | Cc1nc2ncnn2c(C)c1CCC(=O)Nc1cccc(CCc2ccncc2)c1 [CBK285557] | 99.8
18 | Cc1nnc(Sc2nc3ccccc3nc2NC(C)C)s1 [CBK093731] | 90.6
19 | NS(=O)(=O)c1ccc(CCNC(=O)c2cc(-c3ccccc3)nc3ccccc23)cc1 [CBK264365] | 96.9
20 | Cc1ccc(-n2cc(-c3ccccc3)[nH]c2=O)cc1 [CBK288103] | 101
21 | OCCC1CCCCN1c1cncc(-c2cccs2)n1 (stereo not shown) [CBK065758] | 104
22 | CCN1CCN(C(=O)c2c(C)noc2C)CC1 [CBK200374] | 93.6

Row | SMILES | viability at 28.5 h, 10 µM [%]
23 | Cc1ccc(C2=NN(C(=N)SC3CC(=O)N(c4ccc(C(=O)O)cc4)C3=O)C(c3ccc(Br)cc3)C2)cc1 (stereo not shown) [CBK263497] | 112
24 | NC1CCCN(C(=O)c2ccc(Oc3cccc(Br)c3)nc2)C1 (stereo not shown) [CBK304747] | 92.6
25 | C=CCn1c2cc(C)sc2c2cnn(CC(=O)OC)c(=O)c21 [CBK284166] | 89.3
26 | COCCC(=O)NCc1ccccc1OC1CCNC1 (stereo not shown) [CBK024504T] | 136
27 | COc1ccc(NC(=O)c2cc([N+](=O)[O-])ccc2N2CCN(C)CC2)cc1 [CBK263017] | 102
28 | O=S(=O)(Nc1cccc(-c2cnco2)c1)c1cccc2cccnc12 [CBK067104] | 81
29 | COc1cccc(CCN(Cc2ccc(S(=O)(=O)N3CCOC3=O)cc2)Cc2cccc(OCCO)c2)c1 [CBK014806] | 98.5
30 | CCOC(=O)c1cccnc1-c1cccc(C(N)=O)c1 [CBK149239] | 96
31 | COc1ccc(CC(C(=O)O)C(=O)O)cc1OC [CBK262127] | 95.9
32 | C1CCc2nnc(C34CC5CC(CC(C5)C3)C4)n2CC1 [CBK200068] | 83.5
33 | O=C(CN1CCOCC1)Nc1c2c(nc3ccccc13)N(c1ccccc1)CC2 [CBK111136G] | 87.9
34 | O=C(CCn1c(C(F)F)cc2cccnc21)NCc1cccnc1 [CBK285066] | 91.9
35 | CCCCNC(=O)NC(=O)C1CCN(CCCOc2ccccc2)CC1 [CBK035198] | 110
36 | CC(=O)Nc1ccc(Oc2c(F)c(F)c(/C=C/CN3CCOCC3)c(F)c2F)cc1 [CBK269302C] | 89
37 | O=C(/C=C/c1c[nH]c2ccccc12)c1ccc(C(=O)/C=C/c2c[nH]c3ccccc23)cc1 [CBK264224] | 106
38 | CC(C)c1ccc(NS(=O)(=O)c2ccc(F)c(C(=O)O)c2)cc1 [CBK297940] | 104
39 | Cc1ccc(O)c(NC(=O)c2nc3ncccn3n2)c1 [CBK267629] | 99.6
40 | CC(=O)N1CCc2c(sc(NC(=O)c3ccc(N(C)C)cc3)c2C#N)C1 [CBK304333] | 94.7
41 | COc1ccc(C(C)C)cc1-c1cncc(N2CCC(C(=O)O)CC2)n1 [CBK037900] | 104
42 | CC12CN3CC(C)(CN(C1)C3c1ccc([N+](=O)[O-])cc1)C2 (stereo not shown) [CBK262665] | 95.2
43 | O=C(Nc1ccc2n(c1=O)C[C@H]1C[C@@H]2CN(c2ncccn2)C1)c1ccccc1 [CBK289077] | 86.4
44 | NC(=O)C1(N2CCCCC2)CCN(CC(=O)Nc2ccc(Oc3ccccc3)cc2)CC1 [CBK265774] | 107

Row | SMILES | viability at 28.5 h, 10 µM [%]
45 | COc1ccc(S(=O)(=O)N2CCN(C(=O)c3cc(-c4ccncc4)nc4c(C)c(Cl)ccc34)CC2)cc1 [CBK267739] | 92.6
46 | CCN(CC)CCCCC1(C)SC(NC2CCCCCC2)=NC1=O (stereo not shown) [CBK113257] | 96.9
47 | COc1ccc(C(=O)N2CCC3(CCCN(CCN4C(=O)c5ccccc5C4=O)C3)C2)cc1OC (stereo not shown) [CBK132862] | 98.1
48 | Cc1nc2ccccc2c(C(=O)O)c1-c1ccccc1 [CBK274187] | 91.5
49 | Cc1c(Cl)cccc1NC(=O)c1cnc2scc(C)n2c1=O [CBK287463] | 117
50 | OCCNc1ncnc2ccc(Br)cc12 [CBK073217] | 93.9
51 | CC(C)CCCC(=O)n1c(=O)n(CCc2c[nH]c3ccccc23)c2ccccc21 [CBK106513] | 89.2
52 | COc1ccccc1CC(C)NC(=O)CCn1ccc2ccncc21 (stereo not shown) [CBK285175] | 93.8
53 | COc1ccccc1C1(O)CCN(CC(O)c2ccc(C(C)(C)C)cc2)CC1 (stereo not shown) [CBK286335] | 96.2
54 | O=C(O)c1ccc(-n2nnnc2SCc2ccc(F)cc2)cc1 [CBK287229] | 95.8
55 | CCC(C)NC(=O)C1CCC(=O)N1Cc1ccc(C)cc1 (stereo not shown) [CBK294470] | 90
56 | O=C(NCCc1ccccc1)C1CCN(C(=O)c2cccc(F)c2)CC1 [CBK307583] | 82.2
57 | CC(N(C)S(=O)(=O)c1ccc(-n2ncc(Cl)c(Cl)c2=O)cc1)C(C)(C)C (stereo not shown) [CBK304544] | 73.9
58 | CCN1CCN(c2c(Cl)cccc2NC(=O)c2ccc(-c3cccc([N+](=O)[O-])c3)o2)CC1 [CBK268596] | 86.4
59 | CC(=O)NC1(c2ccc(F)cc2)CCN(C(=O)C2CCCCC2)CC1 [CBK283546] | 96.9
60 | COc1cccc(CC(=O)NCC(c2cccs2)N2CCOCC2)c1 (stereo not shown) [CBK305621] | 95.9
61 | CS(=O)(=O)N1CC2CCCC(O)(c3cccc(F)c3)C2C1 (stereo not shown) [CBK283107] | 97.3
62 | Cc1ccc(C(=O)Nc2cc(C)nn2C)c(N2CCOCC2)n1 [CBK106221] | 104
63 | Cc1ccc(/C=C/C(=O)O)cc1S(=O)(=O)NCC1CCCO1 (stereo not shown) [CBK287267] | 82.5
64 | CCC(C(=O)Nc1nccs1)N(C)Cc1c(C)nn(C(C)C)c1C (stereo not shown) [CBK307402] | 103
65 | CC1CCCCN1C(=O)CCn1c(C(F)F)cc2cccnc21 (stereo not shown) [CBK285024] | 89.5
66 | COc1ccc(S(=O)(=O)N2CCN(Cc3ccc4c(c3)OCO4)CC2)c(Cl)c1Cl [CBK074433] | 102

Row | SMILES | viability at 28.5 h, 10 µM [%]
67 | COc1ccc(OC(=O)c2cccc(F)c2)c(C(C)=O)c1 [CBK088044] | 89
68 | Cc1nc(C)n(C(C)CNC(=O)Cc2coc3cc(C)c(C)cc23)n1 (stereo not shown) [CBK282577] | 106
69 | CC(C)n1c(=O)n(C(=O)c2ccco2)c2cccnc21 [CBK283856] | 102
70 | Cc1ccc(SCCNC(=O)COc2ccc(Cl)cc2Cl)cc1 [CBK263976] | 86.6
71 | O=C(Nc1ccc(S(=O)(=O)Nc2ncccn2)cc1)c1ccc(N2C(=O)c3ccccc3C2=O)cc1 [CBK264868] | 94
72 | Fc1ccc([C@@H]2CN(Cc3cccnc3)C[C@H]2c2cc[nH]n2)cc1 [CBK283054] | 100
73 | COC(=O)Nc1nc2cc3cn[nH]c3cc2[nH]1 [CBK016129] | 105
74 | O=C(Nc1cccc2[nH]ccc12)c1ccc2c(c1)OCCO2 [CBK159657] | 85.7
75 | Cc1ccccc1NS(=O)(=O)c1cc(OCC(N)=O)c(C)cc1Cl [CBK266443] | 85.9
76 | O=C(Cc1cccc(O)c1)N1CCCC1c1nc2ccccc2[nH]1 (stereo not shown) [CBK282346] | 91.9
77 | O=C(CSCc1ccc(Br)cc1)Nc1cccnc1 [CBK268543] | 104
78 | CC1(C)[C@H](Cc2cc(CC3CCCCC3)on2)C[C@@H]1NC(=O)N1CCOCC1 [CBK289258] | 98.6
79 | CCN1CCN(C(=O)CN(C)S(=O)(=O)c2ccc(Cl)cc2)CC1 [CBK267218] | 100
80 | COc1cc(/C=C/C(=O)O)cc(S(=O)(=O)N2CCc3ccccc3C2)c1OC [CBK264406] | 96.8
81 | CCN(CC)C(=O)CN1C(=O)N2CCN=C2c2ccccc21 [CBK283944] | 94.9
82 | CC(Oc1ccccc1Br)c1nc(-c2nonc2N)no1 (stereo not shown) [CBK026982] | 86.2
83 | O=S(=O)(Nc1cc(NC2CCNC2)c2occc2c1)c1ccccc1 (stereo not shown) [CBK066943C] | 104
84 | O=C(O)CCSc1nc2ccccc2nc1N1CCCC1 [CBK107862] | 95.7
85 | CS(=O)(=O)c1ccc(-c2ccc(C(=O)N3CCN(Cc4ccc(F)c(F)c4)CC3)nc2)cc1 [CBK160485] | 87.4
86 | CN1CCC(N2CCN(C(=O)Nc3ccc4c(c3)OCCO4)CC2)CC1 [CBK155898] | 87
87 | COc1cccc(-c2noc(Cn3cnc4sccc4c3=O)n2)c1 [CBK297127] | 85.3
88 | O=C(Nc1ccc(O)cc1C(=O)O)c1ccc2c(c1)C(=O)N(Cc1ccco1)C2=O [CBK267418] | 103
